Test results taken from US20260125374A1, “PI3K-ALPHA INHIBITORS AND METHODS OF MAKING AND USING THE SAME” (Relay Therapeutics, Inc., priority 2021, published 2026).
Converted amounts (≈) assume the structure as drawn. Like-named read-outs stand apart in the source and are kept apart here.

Key:
Type in all cases: physicochemical
[1] = Hygroscopicity by DVS; details: for 1st Desorp. (%) / 1st Sorp. (%) / 2nd Desorp. (%) / 2nd Sorp. (%): DVS 25° C.
Protocol: • Method 1 (for I-1 Form A and I-3 Form A) • Instrument Intrinsic, Advantage or Adventure • Total gas flow 200 sccm • Oven temperature 25° C. • Solvent Water • Method Cycle: 40-0-95-0-40% RH • Stage Step: 10% • Equilibrium: 0.002 dm/dt (%/min) • Minimum dm/dt stability duration: 60 min • Maximum dm/dt stage time: 360 min • Method 2 (for I-4 Form A) • Instrument Intrinsic, Advantage or Adventure • Total gas flow 200 sccm • Oven temperature 25° C. • Solvent Water • Method Cycle: 40-95-0-95-40% RH • Stage Step: 10% • Equilibrium: 0.002 dm/dt (%/min) • Minimum dm/dt stability duration: 60 min • Maximum dm/dt stage time: 360 min
I-1 Form A is hygroscopic. It absorbs about 5.5% water by weight from 40% RH to 95% RH. […] It absorbs about 40% water by weight from 40% RH to 95% RH. Form changed after the DVS test. […] It starts to absorb water when RH>40% and potential hydrate form generates at high humidity based on DVS data. The sorption and desorption are reversible.
Water sorption and desorption behavior of I-1 Form A, I-3 Form A, and I-4 Form A was investigated by DVS at 25° C. with a cycle of 40-0-95-0-40% RH, dm/dt 0.002, min. equilibration time 60 min and max. equilibration time 360 min. XRPD was measured after the DVS test to determine form change.

[2] = Bulk stability (1 week); set-up: key to CL (color): A: No change of color; B: Slight discoloration; C: Medium discoloration; D: Strong discoloration; DC: complete decomposition; details: for CL (color) / Bulk (HPLC) chiral purity / Bulk (HPLC) purity / Bulk (XRPD): Solid state, 1 week
Protocol: Bulk stability of I-1 Form A and the 2 salt candidates was investigated at 25° C./92% RH in an open container, at 40° C./75% RH in an open container and at 60° C. in a tight container over 1 week. […] All the 3 salts show no obvious racemization based on chiral purity results.
I-1 Form A and the 2 salts were placed at 25° C./92% RH in an open container, at 40° C./75% RH in an open container and at 60° C. in a closed container for I week. Samples after I week were characterized by XRPD and HPLC and inspected for color change.

[3] = Solubility study at 37° C. (buffer, water, bio-relevant media, MeOH/DCM)
Protocol: In addition, residual solids were checked by chiral HPLC to confirm whether racemization occurs.
Accurate 4 mg of I-1 Form A, 5.13 mg of I-3 Form A, 4.63 mg of I-4 Form A was weighed into a 8 mL glass vial, respectively. 2 mL of solubility medium was added. The salt amount used is equivalent to 4 mg anhydrous free form. Obtained suspensions/solutions were stirred at 37° C. at 400 rpm for 2 hours and 24 hours and then centrifuged at 37° C. at 14,000 rpm for 5 min. Supernatants were analyzed by UPLC and PH meter for solubility and pH value, respectively. Residual solids (wet cakes) were characterized by XRPD to determine physical form and then analyzed by HPLC for chiral purity.

[4] = Salt candidates risk matrix (summary)
[5] = 25° C./92% RH, open container, listed as I-1 Form A
[6] = 40° C./75% RH, open container, listed as I-1 Form A
[7] = 60° C., tight container, listed as I-1 Form A
[8] = before storage, listed as I-1 Form A
[9] = FaSSIF-V1, pH 6.5, 2 hours, listed as I-1 Form A
[10] = FaSSIF-V1, pH 6.5, 24 hours, listed as I-1 Form A
[11] = FeSSIF-V1, pH 5.0, 24 hours, listed as I-1 Form A
[12] = SGF, pH 2.0, 24 hours, listed as I-1 Form A
[13] = Water, 24 hours, listed as I-1 Form A
[14] = pH 2, HCl, 24 hours, listed as I-1 Form A

N#Cc1c(-c2cc(NC(=O)c3cc(F)cc(C(F)(F)F)c3)c3c(c2)C(=O)N[C@H]3c2cc(F)ccc2Cl)ccc2ncnn12 [Compound I-1, (R)-N-(3-(2-chloro-5-fluorophenyl)-6-(5-cyano-[1,2,4]triazolo[1,5-a]pyridin-6-yl)-1-oxoisoindolin-4-yl)-3-fluoro-5-(trifluoromethyl)benzamide]
1st Desorp. (%) ([1]; 0% RH, listed as I-1 Form A): 0.17%
1st Sorp. (%) ([1]; 0% RH, listed as I-1 Form A): 0.17%
2nd Desorp. (%) ([1]; 0% RH, listed as I-1 Form A): 0.001%
2nd Sorp. (%) ([1]; 0% RH, listed as I-1 Form A): 0.001%
2nd Desorp. (%) ([1]; 10% RH): 0.11%
1st Desorp. (%) ([1]; 10% RH, listed as I-1 Form A): 0.25%
1st Sorp. (%) ([1]; 10% RH, listed as I-1 Form A): 0.23%
2nd Sorp. (%) ([1]; 10% RH, listed as I-1 Form A): 0.08%
1st Desorp. (%) ([1]; 20% RH, listed as I-1 Form A): 0.33%
1st Sorp. (%) ([1]; 20% RH, listed as I-1 Form A): 0.29%
2nd Desorp. (%) ([1]; 20% RH, listed as I-1 Form A): 0.21%
2nd Sorp. (%) ([1]; 20% RH, listed as I-1 Form A): 0.15%
1st Desorp. (%) ([1]; 30% RH, listed as I-1 Form A): 0.42%
1st Sorp. (%) ([1]; 30% RH, listed as I-1 Form A): 0.35%
2nd Desorp. (%) ([1]; 30% RH, listed as I-1 Form A): 0.33%
2nd Sorp. (%) ([1]; 30% RH, listed as I-1 Form A): 0.22%
1st Desorp. (%) ([1]; 40% RH, listed as I-1 Form A): 0.52%
1st Sorp. (%) ([1]; 40% RH, listed as I-1 Form A): 0.42%
2nd Desorp. (%) ([1]; 40% RH, listed as I-1 Form A): 0.51%
2nd Sorp. (%) ([1]; 40% RH, listed as I-1 Form A): 0.32%
1st Sorp. (%) ([1]; 50% RH, listed as I-1 Form A): 0.54%
2nd Desorp. (%) ([1]; 50% RH, listed as I-1 Form A): 0.92%
1st Sorp. (%) ([1]; 60% RH, listed as I-1 Form A): 0.71%
2nd Desorp. (%) ([1]; 60% RH, listed as I-1 Form A): 1.30%
1st Sorp. (%) ([1]; 70% RH, listed as I-1 Form A): 1.02%
2nd Desorp. (%) ([1]; 70% RH, listed as I-1 Form A): 1.62%
1st Sorp. (%) ([1]; 80% RH, listed as I-1 Form A): 1.84%
2nd Desorp. (%) ([1]; 80% RH, listed as I-1 Form A): 2.15%
1st Sorp. (%) ([1]; 90% RH, listed as I-1 Form A): 3.24%
2nd Desorp. (%) ([1]; 90% RH, listed as I-1 Form A): 3.56%
1st Sorp. (%) ([1]; 95% RH, listed as I-1 Form A): 5.90%
2nd Desorp. (%) ([1]; 95% RH, listed as I-1 Form A): 5.90%
hygroscopicity ([1]; DVS at 25° C., listed as I-1 Form A): hygroscopic
water absorbed ([1]; from 40% RH to 95% RH, 25° C., listed as I-1 Form A): about 5.5 % water by weight
form after the DVS test (XRPD) ([1]; listed as I-1 Form A): no form and crystallinity change
Chemical stability [2, 4]: Stable
Physical stability [2, 4]: Stable
CL (color) ([2]; 25° C./92% RH, open container): A
Bulk (HPLC) chiral purity [2, 5]: 98.9%
Bulk (HPLC) purity [2, 5]: 99.0%/
Bulk (XRPD) [2, 5]: No form change
CL (color) ([2]; 40° C./75% RH, open container): A
Bulk (HPLC) chiral purity [2, 6]: 98.9%
Bulk (HPLC) purity [2, 6]: 99.0%/
Bulk (XRPD) [2, 6]: No form change
Bulk (XRPD) ([2]; 60° C., tight container): No form change
CL (color) ([2]; 60° C., tight container): A
Bulk (HPLC) chiral purity [2, 7]: 98.9%
Bulk (HPLC) purity [2, 7]: 99.0%/
Chiral purity (initial) [2, 8]: 99.0%
Initial purity by HPLC [2, 8]: 99.0%
Chiral purity [3, 9]: purity: 97.7%)
Solubility [3, 9]: 4.5 μg/mL(chiral
Chiral purity ([3]; FaSSIF-V1, pH 6.5, 24 hours): (chiral purity: 97.7%)
Chiral purity (solids) [3, 10]: 98.9%)
Solubility [3, 10]: 11.9 µg/mL (≈ 19.5 µM)
pH of supernatant [3, 10]: 6.45
Solubility ([3]; FeSSIF-V1, pH 5.0, 2 hours, listed as I-1 Form A): 20.5 µg/mL (≈ 33.7 µM)
Chiral purity (solids) [3, 11]: 85.7%)
Solubility [3, 11]: 40.6 µg/mL (≈ 66.7 µM)
pH of supernatant [3, 11]: 4.87
solubility at 2 h ([3]; MeOH/DCM (1:2, v/v), 37 °C, organic solvent or mixture, thermodynamic from solid, MeOH/DCM (1:2, v/v), 2 hours): > 145000 µg/mL
solubility at 24 h ([3]; MeOH/DCM (1:2, v/v), 37 °C, organic solvent or mixture, thermodynamic from solid, MeOH/DCM (1:2, v/v), 24 hours): > 145000 µg/mL
Solubility ([3]; MeOH/DCM (1:2, v/v), 37 °C, organic solvent or mixture, thermodynamic from solid, read-out: solubility in MeOH/DCM (1:2, v/v)): > 145000 µg/mL
Solubility ([3]; SGF, pH 2.0, 2 hours, listed as I-1 Form A): 11.2 µg/mL (≈ 18.4 µM)
Chiral purity (solids) [3, 12]: 98.9%)
Solubility [3, 12]: 6.4 µg/mL (≈ 10.5 µM)
pH of supernatant [3, 12]: 2.04
Solubility ([3]; Water, 2 hours, LOQ: 0.5 μg/mL): <LOQ
Solubility ([3]; Water, 24 hours, LOQ: 0.5 μg/mL): LOQ
Chiral purity (solids) [3, 13]: 98.9%)
pH of supernatant [3, 13]: 7.50
Solubility ([3]; pH 2, HCl, 2 hours, LOQ: 0.5 μg/mL): <LOQ
Solubility ([3]; pH 2, HCl, 24 hours, LOQ: 0.5 μg/mL): LOQ
Chiral purity (solids) [3, 14]: 98.9%)
pH of supernatant [3, 14]: 2.03
Solubility ([3]; pH 2.0 HCl buffer solution, 37 °C, pH 2, aqueous buffer, thermodynamic from solid, solubility in pH 2 HCl buffer solution, 2 h and 24 h, LOQ=0.5 μg/mL): < 0.5 µg/mL
Solubility ([3]; water, 37 °C, water, thermodynamic from solid, 2 h and 24 h, LOQ=0.5 μg/mL, read-out: solubility in pure water): < 0.5 µg/mL
